Assay [1] has as its target T1, HIV-1 protease (Q7S mutant form) (Human immunodeficiency virus type 1 group M subtype B, UniProt P04585, Q495S).
T1 construct: made in house
Nature of the assay: HIV-1 Protease RET assay. The following applies: Ave. Ki (nM), RET assay, Q7S enzyme, Morrison tight binding fit. The format is biochemical. An outline of the steps: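 Ki values fitted with the Morrison tight-binding equation from steady-state RET cleavage (ex 340, em 490 nm) of 5 μM RE(EDANS)SQNYPIVQK(DABCYL)R. Buffer pH 4.8 acetate, 1M NaCl, 5 mM DTT, 1 mg/ml BSA, 10% DMSO; 2 nM Q7S mutant dimer, 37 °C, 12 min.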

Assay [2] relates to HIV-1 (HIV-1 RF, HIV-1 NL4-3) in CEM-SS / MT-2 cells. The assay is described as follows: Cytopathic effect (CPE) inhibition assay (XTT/MTT dye reduction). It is filed as cell-based. The following applies: for pEC50: Human immunodeficiency virus 1, NL43, read-out: Ave CPE EC50; for EC50: Human immunodeficiency virus 1, NL43, read-out: Ave CPE EC50 (mM). The procedure, abridged:
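Readout is XTT reduction (A450, 4 h) after six days of culturing virus-infected (moi 0.025–0.819) or mock-infected CEM-SS/MT-2 cells, 2×10^4 per well, with half-log compound series. Antiviral EC50 and cytotoxic CC50 are relative to uninfected compound-free cells. Therapeutic index is CC50 divided by EC50.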

In assay [3] the test system is HIV-1 NL4-3 or HIV-1 NL4-3(I84V/L90M). The assay is described as follows: Susceptibility assay, p24 ELISA in infected MT-2 cells. The following applies: Human immunodeficiency virus 1, NL43, MT2, read-out: EC50 or IC50 (mM), values without asterisk (EC50). It is filed as cell-based. As for the experimental part: T-cell lines, CEM-SS, and MT-2, and viruses HIV-1 RF and HIV-1 NL4-3 (pNL4-3) were obtained from the National Institutes of Health (AIDS Research and Reference Reagent Program, Bethesda, Md.).
Compounds were tested in phenotypic susceptibility assays at Virologic, Inc., (See Petropoulos C. J., Parkin N. T., Limoli K. L., Lie Y. S., Wrin T., Huang W., Tian H., Smith D., Winslow G. A., Capon D J, Whitcomb J M. 2000, “A novel phenotypic drug susceptibility assay for human immunodeficiency virus type 1,” Antimicrob Agents Chemother 44(4):920–928) or using the assay described here. MT-2 cells were infected with either HIV-1 NL4-3 or HIV-1 NL4-3([…]) and incubated in the presence of serial 0.5 log dilutions of test compounds. Three days later, culture supernatants were collected and virus production, as determined by p24 ELISA, was assayed. Percent inhibition was calculated as p24 concentration in compound-treated samples as compared to infected, compound-free controls. Inhibition of viral replication is determined by measuring reduction in HIV p24 present in the culture supernatant, using a Beckman-Coulter p24HIV-1 Ag EIA kit and following the supplied protocol. Absorbance is read on a MRX microplate reader (Dynex Technologies). The EC50 was calculated as the concentration of compound that effected a decrease in the p24 production by infected, compound-treated cells to 50% of that produced by infected, compound-free cells.

Structures are written as SMILES. pEC50: −log10 of the molar value. Where two headings read alike, the source gives them in different places.

In turn, `Cc1c(O)cccc1C(=O)N[C@@H](Cc1ccccc1)[C@H](O)C(=O)N1CSC(C)(C)[C@H]1C(=O)N[C@H]1CCCc2sccc21` [Example A50, 3-[2-Hydroxy-3-(3-hydroxy-2-methyl-benzoylamino)-4-phenyl-butyryl]-5,5-dimethyl-thiazolidine-4-carboxylic acid (4,5,6,7-tetrahydro-benzo[b]thiophen-4-yl)-amide] showed an inhibition constant Ki in assay [1] of less than 0.1 nM. Further, in assay [2], the pEC50 is 7.62. The concentration for a half-maximal effect (EC50) in assay [3] was 125 nM.
On to `Cc1c(O)cccc1C(=O)N[C@@H](Cc1ccccc1)[C@H](O)C(=O)N1CC(F)(F)C(C)(C)[C@H]1C(=O)NCC(C)C` [Example C21, 4,4-Difluoro-1-[2-hydroxy-3-(3-hydroxy-2-methyl-benzoylamino)-4-phenyl-butyryl]-3,3-dimethyl-pyrrolidine-2-carboxylic acid isobutyl-amide], for which the Ki in assay [1] was less than 0.1 nM. Also, the negative logarithm of the EC50 (pEC50) in assay [2] is 7.82. Moreover, the EC50 in assay [3] was found to be 81 nM.
Regarding `Cc1ccccc1CNC(=O)[C@H]1N(C(=O)[C@@H](O)[C@H](Cc2ccccc2)NC(=O)COc2c(Cl)cccc2Cl)CSC1(C)C` [Example B77, (R)-3-{(2S,3S)-3-[2-(2,6-Dichloro-phenoxy)-acetylamino]-2-hydroxy-4-phenyl-butyryl}-5,5-dimethyl-thiazolidine-4-carboxylic acid 2-methyl-benzylamide], in assay [1], the Ki is less than 0.1 nM. Further, in assay [2], the pEC50 was 6.84. Also, the half-maximal effective concentration (EC50) in assay [3] is 1630 nM.
`Cc1ccccc1CNC(=O)[C@H]1N(C(=O)[C@@H](O)[C@H](Cc2ccccc2)NC(=O)c2cccc(O)c2C)CSC12CCCCC2` [Example C31, 3-(2-Hydroxy-3-{[1-(2-methyl-3-hydroxy-phenyl)-methanoyl]-amino}-4-phenyl-butanoyl)-1-thia-3-aza-spiro[4.5]decane-4-carboxylic acid 2-methyl-benzylamide]: the Ki in assay [1] turned out to be 0.17 nM. Further, the pEC50 in assay [2] is 7.51. The half-maximal effective concentration (EC50) in assay [3] was 1070 nM.
The compound `C/C=C(\C)CNC(=O)[C@@H]1CC(F)(F)CN1C(=O)[C@@H](O)[C@H](Cc1ccccc1)NC(=O)c1cccc(O)c1C` [Example C8, (S)-4,4-Difluoro-1-((2S,3S)-2-hydroxy-3-{[1-(3-hydroxy-2-methyl-phenyl)-methanoyl]-amino}-4-phenyl-butanoyl)-pyrrolidine-2-carboxylic acid ((E)-2-methyl-but-2-enyl)-amide] gave a Ki in assay [1] of 1.5 nM. Moreover, the 50% effective concentration (EC50) in assay [2] was determined as 152 nM; in assay [3], 1420 nM.
On to `Cc1c(O)cccc1C(=O)N[C@@H](Cc1ccccc1)[C@H](O)C(=O)N1CSC(C)(C)[C@H]1C(=O)N[C@H]1CCOc2c(F)cc(F)cc21` [Example A55, (R)-3-((2S,3S)-2-Hydroxy-3-{[1-(3-hydroxy-2-methyl-phenyl)-methanoyl]-amino}-4-phenyl-butanoyl)-5,5-dimethyl-thiazolidine-4-carboxylic acid ((S)-6,8-difluoro-chroman-4-yl)-amide], for which the affinity in assay [1], expressed as Ki, was 0.21 nM. The pEC50 in assay [2] was 7.27. Also, the half-maximal effective concentration (EC50) in assay [3] stood at 798 nM.
The compound `C=CCCC(=O)[C@H]1N(C(=O)[C@@H](O)[C@H](Cc2ccccc2)NC(=O)c2cccc(O)c2C)CSC1(C)C` [Example D1, N-[(1S,2S)-1-Benzyl-3-((R)-5,5-dimethyl-4-pent-4-enoyl-thiazolidin-3-yl)-2-hydroxy-3-oxo-propyl]-3-hydroxy-2-methyl-benzamide] came in with a Ki in assay [1] of less than 0.1 nM. Besides, the EC50 in assay [2] is 52 nM; in assay [3] it was 601 nM.
`Cc1occc1CNC(=O)[C@H]1N(C(=O)[C@@H](O)[C@H](Cc2ccccc2)NC(=O)c2cccc(O)c2C)CSC1(C)C` [Example A53, (R)-3-((2S,3S)-2-Hydroxy-3-{[1-(3-hydroxy-2-methyl-phenyl)-methanoyl]-amino}-4-phenyl-butanoyl)-5,5-dimethyl-thiazolidine-4-carboxylic acid (2-methyl-furan-3-ylmethyl)-amide] registered a Ki in assay [1] of less than 0.1 nM. Moreover, the pEC50 in assay [2] is 7.55. Also, the 50% effective concentration (EC50) in assay [3] was 70 nM.
In assay [1], `Cc1c(O)cccc1C(=O)N[C@@H](Cc1ccccc1)[C@H](O)C(=O)N1CC(F)(F)C(C)(C)[C@H]1C(=O)NCc1ccc(F)cc1Cl` [Example C18, (S)-4,4-Difluoro-1-((2S,3S)-2-hydroxy-3-{[1-(3-hydroxy-2-methyl-phenyl)-methanoyl]-amino}-4-phenyl-butanoyl)-3,3-dimethyl-pyrrolidine-2-carboxylic acid 2-chloro-4-fluoro-benzylamide] displayed an inhibition constant (Ki) of less than 0.1 nM. For the same compound, the pEC50 in assay [2] is 6.83. For the same compound, the 50% effective concentration (EC50) in assay [3] worked out at 618 nM.
On the same counts, the results for `Cc1c(O)cccc1C(=O)N[C@@H](Cc1ccccc1)[C@H](O)C(=O)N1CSC(C)(C)[C@H]1C(=O)NCC1=CCCC1` [Example A39, (R)-3-((2S,3S)-2-Hydroxy-3-{[1-(3-hydroxy-2-methyl-phenyl)-methanoyl]-amino}-4-phenyl-butanoyl)-5,5-dimethyl-thiazolidine-4-carboxylic acid (cyclopent-1-enylmethyl)-amide] are less than 0.1 nM, 6.91 and 213 nM.
In turn, `Cc1c(O)cccc1C(=O)N[C@@H](Cc1ccccc1)[C@H](O)C(=O)N1CSC(C)(C)[C@H]1C(=O)N[C@H]1CCCc2ncccc21` [Example A42, 3-[2-Hydroxy-3-(3-hydroxy-2-methyl-benzoylamino)-4-phenyl-butyryl]-5,5-dimethyl-thiazolidine-4-carboxylic acid (5,6,7,8-tetrahydro-quinolin-5-yl)-amide] came in with an inhibitory constant (Ki) in assay [1] of less than 0.1 nM. For the same compound, the pEC50 in assay [2] is 7.19. The EC50 in assay [3] was 98 nM.
Turning to `Cc1c(O)cccc1C(=O)N[C@@H](Cc1ccccc1)[C@H](O)C(=O)N1CSC(C)(C)[C@H]1C(=O)N[C@H]1CCc2ncccc21` [Example A51, 3-[2-Hydroxy-3-(3-hydroxy-2-methyl-benzoylamino)-4-phenyl-butyryl]-5,5-dimethyl-thiazolidine-4-carboxylic acid (6,7-dihydro-5H-[1]pyrindin-5-yl)-amide], in assay [1], the inhibitory constant (Ki) was less than 0.1 nM. In assay [2], the pEC50 is 6.80. Besides, in assay [3], the EC50 stood at 50 nM.
In assay [1], `Cc1c(O)cccc1C(=O)N[C@@H](Cc1ccccc1)[C@H](O)C(=O)N1COC(C)(C)[C@H]1C(=O)N[C@@H]1C=CCCC1` [Example C29, (S)-3-((2S,3S)-2-Hydroxy-3-{[1-(3-hydroxy-2-methyl-phenyl)-methanoyl]-amino}-4-phenyl-butanoyl)-5,5-dimethyl-oxazolidine-4-carboxylic acid (S)-cyclohex-2-enylamide] yielded a Ki of 0.18 nM. Further, in assay [2], the pEC50 was 6.85. Moreover, the EC50 in assay [3] turned out to be 1360 nM.
For `Cc1c(O)cccc1C(=O)N[C@@H](Cc1ccccc1)[C@H](O)C(=O)N1CSC(C)(C)[C@H]1C(=O)NCc1nccs1` [Example A41, (R)-3-((2S,3S)-2-Hydroxy-3-{[1-(3-hydroxy-2-methyl-phenyl)-methanoyl]-amino}-4-phenyl-butanoyl)-5,5-dimethyl-thiazolidine-4-carboxylic acid (thiazol-2-ylmethyl)-amide], the inhibition constant Ki in assay [1] is 0.17 nM. In addition, the negative logarithm of the EC50 (pEC50) in assay [2] was 6.84. The EC50 in assay [3] came to 242 nM.
Compound `Cc1c(O)cccc1C(=O)N[C@@H](Cc1ccccc1)[C@H](O)C(=O)N1CSC2(CCCC2)C1C(=O)N[C@@H]1C=CCCC1` (stereo in doubt) [Example C35, (S)-3-((2S,3S)-2-Hydroxy-3-{[1-(3-hydroxy-2-methyl-phenyl)-methanoyl]-amino}-4-phenyl-butanoyl)-1-thia-3-aza-spiro[4.4]nonane-4-carboxylic acid (S)-cyclohex-2-enylamide] registered a Ki in assay [1] of less than 0.1 nM. Further, the negative logarithm of the EC50 (pEC50) in assay [2] was 8.52. In assay [3], the concentration for a half-maximal effect (EC50) stood at 289 nM.
Turning to `C/C=C(\C)CNC(=O)[C@H]1N(C(=O)[C@@H](O)[C@H](Cc2ccccc2)NC(=O)c2cccc(O)c2C)CSC12CCCC2` [Example C34, (R)-3-((2S,3S)-2-Hydroxy-3-{[1-(3-hydroxy-2-methyl-phenyl)-methanoyl]-amino}-4-phenyl-butanoyl)-1-thia-3-aza-spiro[4.4]nonane-4-carboxylic acid ((E)-2-methyl-but-2-enyl)-amide], in assay [1], the Ki is less than 0.1 nM. Besides, the concentration for a half-maximal effect (EC50) amounted to 22 nM in assay [2] and 627 nM in assay [3].

The values are drawn from patent US7094909B2, “HIV protease inhibitors, compositions containing the same, their pharmaceutical uses and materials for their synthesis” (priority 2001, dated 2006).
